Consider 34 compounds from patent US10308637B2 (LifeSci Pharmaceuticals, Inc., priority 2015, dated 2019).

This test can be described thus: Contact Assay (percentage inhibition from fluorescence intensity). The test is classed as biochemical. On the procedure: The percentage inhibition was calculated using the following equation:
[formula] where, Mean(BG) is the average value of the fluorescence intensity of the background wells and Mean(PC) is the average value of the fluorescence intensity of the positive control wells.
Table 4 provides the EC50 values of various compounds disclosed herein.
`Cc1cc(N)nc(C)c1CNC(=O)c1ccnc(Cc2cc(C(=O)O)c3ncc(Cl)cc3c2)c1` [Example 93, 6-((4-(((6-amino-2,4-dimethylpyridin-3-yl)methyl)carbamoyl)pyridin-2-yl)methyl)-3-chloroquinoline-8-carboxylic acid] came in with an EC50 of at most 100 nM.

With `Cc1nc(N)ccc1CNC(=O)c1ccnc(Cc2cc(CO)c3ncc(Cl)cc3c2)c1` [Example 97, N-((6-amino-2-methylpyridin-3-yl)methyl)-2-((3-chloro-8-(hydroxymethyl)quinolin-6-yl)methyl)isonicotinamide], the EC50 is at most 100 nM.

Consider `Cc1cc(N)nc(C)c1CNC(=O)c1ccnc(Cc2ccc3c(cc(Cl)c[n+]3[O-])c2)c1` [Example 99, 6-((4-(((6-amino-2,4-dimethylpyridin-3-yl)methyl)carbamoyl)pyridin-2-yl)methyl)-3-chloroquinoline 1-oxide], for which the EC50 was at most 100 nM.

Compound `Cc1cc(N)nc(C)c1CNC(=O)c1ccnc(Cc2cc(Cl)c3ncc(Cl)cc3c2)c1` [Example 100, N-((6-amino-2,4-dimethylpyridin-3-yl)methyl)-2-((3,8-dichloroquinolin-6-yl)methyl)isonicotinamide] registered an EC50 of at most 100 nM.

In turn, `Cc1nc(N)ccc1CNC(=O)c1ccnc(Cc2cc(Cl)c3ncc(Cl)cc3c2)c1` [Example 101, N-((6-amino-2-methylpyridin-3-yl)methyl)-2-((3,8-dichloroquinolin-6-yl)methyl)isonicotinamide] displayed an EC50 of at most 100 nM.

As for `Cc1cc(N)nc(C)c1CNC(=O)c1ccnc(Cc2ccc3ncc(Cl)cc3c2F)c1` [Example 102, N-((6-amino-2,4-dimethylpyridin-3-yl)methyl)-2-((3-chloro-5-fluoroquinolin-6-yl)methyl)isonicotinamide], the EC50 lay within 100 to 1000 nM.

`Cc1cc(C(=O)NCc2c(C)cc(N)nc2C)cc(Cc2ccc3ncc(Cl)cc3c2)n1` [Example 104, N-((6-amino-2,4-dimethylpyridin-3-yl)methyl)-2-((3-chloroquinolin-6-yl)methyl)-6-methylisonicotinamide]: the EC50 was at most 100 nM.

The compound `Cc1ccc2cc(Cc3cc(C(=O)NCc4c(C)cc(N)nc4C)ccn3)ccc2n1` [Example 113, N-((6-amino-2,4-dimethylpyridin-3-yl)methyl)-2-((2-methylquinolin-6-yl)methyl)isonicotinamide] yielded an EC50 of at most 100 nM.

The compound `Cc1ccc2ncc(Cc3cc(C(=O)NCc4c(C)cc(N)nc4C)ccn3)cc2c1` [Example 114, N-((6-amino-2,4-dimethylpyridin-3-yl)methyl)-2-((6-methylquinolin-3-yl)methyl)isonicotinamide] showed an EC50 of at most 100 nM.

In turn, `Cc1ccc2ncc(Cc3cc(C(=O)NCc4ccc5c(N)nccc5c4)ccn3)cc2c1` [Example 115, N-((1-aminoisoquinolin-6-yl)methyl)-2-((6-methylquinolin-3-yl)methyl)isonicotinamide] returned an EC50 of at most 100 nM.

Consider `Nc1nccc2cc(CNC(=O)c3ccnc(Cc4cnc5ccc(F)cc5c4)c3)ccc12` [Example 118, N-((1-aminoisoquinolin-6-yl)methyl)-2-((6-fluoroquinolin-3-yl)methyl)isonicotinamide], for which the EC50 was at most 100 nM.

As to `Cc1cnc2ccc(Cc3cc(C(=O)NCc4ccc5c(N)nccc5c4)ccn3)cc2c1` [Example 142, N-((1-aminoisoquinolin-6-yl)methyl)-2-((3-methylquinolin-6-yl)methyl)isonicotinamide], the EC50 was at most 100 nM.

With `Cc1cnc2ccc(Cc3cc(C(=O)NCc4c(C)cc(N)nc4C)ccn3)cc2c1` [Example 144, N-((6-amino-2,4-dimethylpyridin-3-yl)methyl)-2-((3-methylquinolin-6-yl)methyl)isonicotinamide], the EC50 was at most 100 nM.

Take `Cc1cc2cc(Cc3cc(C(=O)NCc4c(C)cc(N)nc4C)ccn3)ccc2cn1` [Example 145, N-((6-amino-2,4-dimethylpyridin-3-yl)methyl)-2-((3-methylisoquinolin-6-yl)methyl)isonicotinamide]: the EC50 was at most 100 nM.

For the compound `Cc1cc(N)nc(C)c1CNC(=O)c1ccnc(Cc2cc3cc(Cl)cnc3cn2)c1` [Example 148, N-((6-amino-2,4-dimethylpyridin-3-yl)methyl)-2-((3-chloro-1,7-naphthyridin-6-yl)methyl)isonicotinamide], the EC50 is at most 100 nM.

In turn, `Cc1nc(N)ccc1CNC(=O)c1ccnc(Cc2cc3cc(Cl)cnc3cn2)c1` [Example 149, N-((6-amino-2-methylpyridin-3-yl)methyl)-2-((3-chloro-1,7-naphthyridin-6-yl)methyl)isonicotinamide] displayed an EC50 of at most 100 nM.

`Cc1cc(N)nc(C)c1CNC(=O)c1ccnc(Cc2cnc3[nH]c(C(F)(F)F)cc3c2)c1` [Example 152, N-((6-amino-2,4-dimethylpyridin-3-yl)methyl)-2-((2-(trifluoromethyl)-1H-pyrrolo[2,3-b]pyridin-5-yl)methyl)isonicotinamide] displayed an EC50 of 100 to 1000 nM.

`Cc1cc(N)nc(C)c1CNC(=O)c1ccnc(Cc2cc3cc(Cl)cn3cn2)c1` [Example 153, N-((6-amino-2,4-dimethylpyridin-3-yl)methyl)-2-((6-chloropyrrolo[1,2-c]pyrimidin-3-yl)methyl)isonicotinamide] came in with a 50% effective concentration (EC50) of at most 100 nM.

For the compound `Cc1ccn2cnc(CNC(=O)c3ccnc(Cc4ccc5ncc(Cl)cc5c4)c3)c2c1` [Example 156, 2-((3-chloroquinolin-6-yl)methyl)-N-((7-methylimidazo [1,5-a]pyridin-1-yl)methyl)isonicotinamide], the EC50 lay within 100 to 1000 nM.

As to `Cc1cc(CN)nc(C)c1CNC(=O)c1ccnc(Cc2ccc3ncc(Cl)cc3c2)c1` [Example 171, N-((6-(aminomethyl)-2,4-dimethylpyridin-3-yl)methyl)-2-((3-chloroquinolin-6-yl)methyl)isonicotinamide], the EC50 was in the range of 100 to 1000 nM.

Take `Cc1cc(CN)nc(C)c1CNC(=O)c1ccnc(Cc2ccc3ncc(C(F)(F)F)cc3c2)c1` [Example 172, N-((6-(aminomethyl)-2,4-dimethylpyridin-3-yl)methyl)-2-((3-(trifluoromethyl)quinolin-6-yl)methyl)isonicotinamide]: the EC50 was at most 100 nM.

For `Cc1nc2c(c(C)c1CNC(=O)c1ccnc(Cc3ccc4ncc(C(F)(F)F)cc4c3)c1)CCN2` [Example 176, N-((4,6-dimethyl-2,3-dihydro-1H-pyrrolo[2,3-b]pyridin-5-yl)methyl)-2-((3-(trifluoromethyl)quinolin-6-yl)methyl)isonicotinamide], the EC50 fell in the range of 100 to 1000 nM.

Consider `Cc1c(CNC(=O)c2ccnc(Cc3ccc4ncc(Cl)cc4c3)c2)ccc2c(N)nccc12` [Example 177, N-((1-amino-5-methylisoquinolin-6-yl)methyl)-2-((3-chloroquinolin-6-yl)methyl)isonicotinamide], for which the EC50 is at most 100 nM.

`Nc1nccc2c(F)c(CNC(=O)c3ccnc(Cc4ccc5ncc(Cl)cc5c4)c3)ccc12` [Example 178, N-((1-amino-5-fluoroisoquinolin-6-yl)methyl)-2-((3-chloroquinolin-6-yl)methyl)isonicotinamide]: the EC50 was at most 100 nM.

The compound `Nc1nccc2cc(CNC(=O)c3ccnc(Cc4ccc5ncc(Cl)cc5c4)c3)ccc12` [Example 179, N-((1-aminoisoquinolin-6-yl)methyl)-2-((3-chloroquinolin-6-yl)methyl)isonicotinamide] displayed an EC50 of at most 100 nM.

For `Nc1nccc2cc(CNC(=O)c3ccnc(Cc4ccc5ncc(Cl)cc5c4)c3)c(F)cc12` [Example 180, N-((1-amino-7-fluoroisoquinolin-6-yl)methyl)-2-((3-chloroquinolin-6-yl)methyl)isonicotinamide], the EC50 lay within 100 to 1000 nM.

As to `Cc1cc2c(N)nccc2cc1CNC(=O)c1ccnc(Cc2ccc3ncc(Cl)cc3c2)c1` [Example 181, N-((1-amino-7-methylisoquinolin-6-yl)methyl)-2-((3-chloroquinolin-6-yl)methyl)isonicotinamide], the EC50 is at most 100 nM.

`Nc1nccc2cc(CNC(=O)c3ccnc(Cc4ccc5ncc(C(F)(F)F)cc5c4)c3)c(F)cc12` [Example 182, N-((1-amino-7-fluoroisoquinolin-6-yl)methyl)-2-((3-(trifluoromethyl)quinolin-6-yl)methyl)isonicotinamide] came in with an EC50 of 100 to 1000 nM.

In turn, `Cc1cc2c(N)nccc2cc1CNC(=O)c1ccnc(Cc2ccc3ncc(C(F)(F)F)cc3c2)c1` [Example 183, N-((1-amino-7-methylisoquinolin-6-yl)methyl)-2-((3-(trifluoromethyl)quinolin-6-yl)methyl)isonicotinamide] registered an EC50 of at most 100 nM.

In the case of `Cc1c(CNC(=O)c2ccnc(Cc3ccc4ncc(C(F)(F)F)cc4c3)c2)ccc2c(N)nccc12` [Example 184, N-((1-amino-5-methylisoquinolin-6-yl)methyl)-2-((3-(trifluoromethyl)quinolin-6-yl)methyl)isonicotinamide], the EC50 was at most 100 nM.

As for `Nc1nc(C(F)(F)F)n2cc(CNC(=O)c3ccnc(Cc4ccc5ncc(Cl)cc5c4)c3)ccc12` [Example 186, N-((1-amino-3-(trifluoromethyl)imidazo[1,5-a]pyridin-6-yl)methyl)-2-((3-chloroquinolin-6-yl)methyl)isonicotinamide], the EC50 was at most 100 nM.

Compound `Cc1cc(N)nc(C)c1CNC(=O)c1ccnc(Cc2cnc3ncc(Cl)cc3c2)c1` [Example 204, N-((6-amino-2,4-dimethylpyridin-3-yl)methyl)-2-((6-chloro-1,8-naphthyridin-3-yl)methyl)isonicotinamide] showed a 50% effective concentration (EC50) of at most 100 nM.

For the compound `Cc1cc(N)nc(C)c1CNC(=O)c1cc(Cc2ccc3ncc(Cl)cc3c2)nc(C(N)=O)c1` [Example 208, N^4-((6-amino-2,4-dimethylpyridin-3-yl)methyl)-6-((3-chloroquinolin-6-yl)methyl)pyridine-2,4-dicarboxamide], the EC50 was at most 100 nM.

`Cc1cc(N)nc(C)c1CNC(=O)c1cc(Cc2ccc3ncc(Cl)cc3c2)nc(C(C)(C)O)c1` [Example 210, N-((6-amino-2,4-dimethylpyridin-3-yl)methyl)-2-((3-chloroquinolin-6-yl)methyl)-6-(2-hydroxypropan-2-yl)isonicotinamide] showed an EC50 of at most 100 nM.
